Measured values: patent US8952042B2, “FXR (NR1H4) binding and activity modulating compounds” (Phenex Pharmaceuticals AG, priority 2009, dated 2015)

Legend:
[1] = target: T1, human FXR alpha ligand binding domain (Homo sapiens, UniProt Q96RI1); assay: FRET activity assay (ligand mediated cofactor peptide interaction, LANCE); type: biochemical; details: potency range
T1 construct: made in house; host or cells: E. coli BL21(DE3), vector pDEST15
T1 sequence (Q96RI1 187-472 isoform Q96RI1-2): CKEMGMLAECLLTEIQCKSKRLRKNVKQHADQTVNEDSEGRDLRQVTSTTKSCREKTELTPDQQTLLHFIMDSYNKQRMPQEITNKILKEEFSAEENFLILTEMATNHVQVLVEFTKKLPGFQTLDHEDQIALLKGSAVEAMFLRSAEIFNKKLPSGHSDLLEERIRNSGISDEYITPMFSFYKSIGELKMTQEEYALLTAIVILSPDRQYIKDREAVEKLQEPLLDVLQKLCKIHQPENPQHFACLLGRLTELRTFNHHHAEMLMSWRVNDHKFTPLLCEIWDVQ
Description: Determination of a ligand mediated cofactor peptide interaction to quantify ligand binding to the nuclear receptor FXR was performed as follows: Preparation of human FXR alpha ligand binding domain: The human FXRalpha LBD was expressed in E. coli strain BL21(DE3) as an N-terminally GST tagged fusion protein. The DNA encoding the FXR ligand binding domain was cloned into vector pDEST15 (Invitrogen). Expression was under control of an IPTG inducible T7 promoter. The amino acid boundaries of the ligand binding domain were amino acids 187-472 of Database entry NM_005123 (RefSeq). Expression and purification of the FXR-LBD: An overnight preculture of a transformed E. coli strain was diluted 1:20 in LB-Ampicillin medium and grown at 30° C. to an optical density of OD600=0.4-0.6. Gene expression was then induced by addition of 0.5 mM IPTG. Cells were incubated an additional 6 h at 30° C., 180 rpm. Cells were collected by centrifugation (7000×g, 7 min, room temperature). Per liter of original cell culture, cells were resuspended in 10 mL lysis buffer (50 mM Glucose, 50 mM Tris pH 7.9, 1 mM EDTA and 4 mg/mL lysozyme) and left on ice for 30 min. Cells were then subjected to sonication and cell debris removed via centrifugation (22000×g, 30 min, 4° C.). Per 10 mL of supernatant 0.5 mL prewashed Glutathione 4B sepharose slurry (Qiagen) was added and the suspension kept slowly rotating for 1 h at 4° C. Glutathione 4B sepharose beads were pelleted by centrifugation (2000×g, 15 sec, 4° C.) and washed twice in wash buffer (25 mM Tris, 50 mM KCl, 4 mM MgCl2 and 1M NaCl). The pellet was resuspended in 3 mL elution buffer per liter of original culture (elution buffer: 20 mM Tris, 60 mM KCl, 5 mM MgCl2 and 80 mM glutathione added immediately prior to use as powder). The suspension was left rotating for 15 min at 4° C., the beads pelleted and eluted again with half the volume of elution buffer than the first time. The eluates were pooled and dialysed overnight in 20 mM Hepes buffer (pH 7.5) containing 60 mM KCl, 5 mM MgCl2 as well as 1 mM dithiothreitol and 10% (v/v) glycerol. The protein was analysed by SDS-Page.
The method measures the ability of putative ligands to modulate the interaction between the purified bacterial expressed FXR ligand binding domain (LBD) and a synthetic biotinylated peptide based on residues 676-700 of SRC-1 (LCD2, 676-700). […] The ligand binding domain (LBD) of FXR was expressed as fusion protein with GST in BL-21 cells using the vector pDEST15. Cells were lysed by sonication, and the fusion proteins purified over glutathione sepharose (Pharmacia) according to the manufacturers instructions. For screening of compounds for their influence on the FXR-peptide interaction, the Perkin Elmer LANCE technology was applied. This method relies on the binding dependent energy transfer from a donor to an acceptor fluorophor attached to the binding partner of interest. For ease of handling and reduction of background from compound fluorescence LANCE technology makes use of generic fluorophore labels and time resolved detection Assays were done in a final volume of 25 μL in a 384 well plate, in a Tris-based buffer (20 mM Tris-HCl pH 7.5; 60 mM KCl, 5 mM MgCl2; 35 ng/μL BSA), containing 20-60 ng/well recombinantly expressed FXR-LBD fused to GST, 200-600 nM N-terminally biotinylated peptide, representing SRC1 aminoacids 676-700, 200 ng/well Streptavidin-xIAPC conjugate (Prozyme) and 6-10 ng/well Eu W1024—antiGST (Perkin Elmer). DMSO content of the samples was kept at 1%. After generation of the assay mix and diluting the potentially FXR modulating ligands, the assay was equilibrated for one hour in the dark at room temperature in FIA-plates black 384 well (Greiner). The LANCE signal was detected by a Perkin Elmer VICTOR2V™ Multilabel Counter. The results were visualized by plotting the ratio between the emitted light at 665 and 615 nm.

[2] = target: T2, FXR ligand binding domain (Homo sapiens, UniProt Q96RI1); assay: Mammalian One Hybrid (M1H) Gal4 reporter assay in HEK293 cells; type: cell-based; details: potency range
T2 construct: expressed in transfected cells; host or cells: HEK293 cells (DSMZ), transient transfection of pCMV-BD-FXR-LBD
T2 sequence (Q96RI1 187-472 isoform Q96RI1-2): T1 sequence (Q96RI1 187-472 isoform Q96RI1-2)
Description: Determination of a ligand mediated Gal4 promoter driven transactivation to quantify ligand binding mediated activation of FXR was performed as follows: The cDNA part encoding the FXR ligand binding domain was cloned into vector pCMV-BD (Stratagene) as a fusion to the yeast GAL4 DNA binding domain under the control of the CMV promoter. The amino acid boundaries of the ligand binding domain were amino acids 187-472 of Database entry NM_005123 (RefSeq). The plasmid pFR-Luc (Stratagene) was used as the reporter plasmid, containing a synthetic promoter with five tandem repeats of the yeast GAL4 binding sites, driving the expression of the Photinus pyralis (American firefly) luciferase gene as the reporter gene. In order to improve experimental accuracy the plasmid pRL-CMV (Promega) was cotransfected. pRL-CMV contains the constitutive CMV promoter, controlling the expression of the Renilla reniformis luciferase. All Gal4 reporter gene assays were done in HEK293 cells (obtained from DSMZ, Braunschweig, Germany) grown in MEM with L-Glutamine and Earle's BSS supplemented with 10% fetal bovine serum, 0.1 mM nonessential amino acids, 1 mM sodium pyruvate, and 100 units Penicillin/[…] per mL at 37° C. in 5% CO2. Medium and supplements were obtained from Invitrogen. For the assay, […] were plated per well in 96 well plates in 100 μL per well MEM without Phenol Red and L-Glutamine and with Earle's BSS supplemented with 10% charcoal/dextran treated FBS (HyClone, South Logan, Utah), 0.1 mM nonessential amino acids, 2 mM glutamine, 1 mM sodium pyruvate, and 100 units Penicillin/[…] per mL, incubated at 37° C. in 5% CO2. The following day the cells were >90% confluence. Medium was removed and cells were transiently transfected using 20 μL per well of a OptiMEM—polyethylene-imine-based transfection-reagent (OptiMEM, Invitrogen; Polyethyleneimine, Aldrich Cat No. 40, 827-7) including the three plasmids described above. MEM with the same composition as used for plating cells was added 2-4 h after addition of transfection mixture. Then compound stocks, prediluted in MEM were added (final vehicle concentration not exceeding 0.1%). Cells were incubated for additional 16 h before firefly and renilla luciferase activities were measured sequentially in the same cell extract using a Dual-Light-Luciferase-Assay system (Dyer et al., Anal. Biochem. 2000, 282, 158-161). All experiments were done in triplicates.

[3] = UV stability, irradiation at 366 nm on a DMSO thin film, LCMS; type: physicochemical; details: 366 nm emission, 250 μM in DMSO thin film, FIG. 3m
Description: A different, more rapid experimental setup was used to investigate a broader set of compounds in comparison to GW4064. The substances were dissolved in reagent grade DMSO (99.5%, Karl Roth) at a concentration of 250 μM. DMSO solution was spread over a silica glass slide to a depth of approximately 2 mm and irradiated using a UV lamp set to 366 nm emission (Benda Instruments, Wiesloch Germany) using an 8 W tube set approximately 2.5 cm from the target materials. The solution was sampled prior to irradiation (T=0 min) and at various intervals thereafter. Stocks and samples were maintained in foil wrapped tubes out of direct light. Samples were injected (2 μL) directly onto a LCMS System for analysis without any further preparation.

EC50 [1] | EC50 [2] | photostability compared to GW4064 [3] | Compound
10 to 100 nM | 10 to 100 nM | higher photostability | O=C(O)c1ccc(C2CC2c2ccc(OCc3c(-c4c(Cl)cccc4Cl)noc3C3CC3)cc2Cl)cc1 (single isomer, unassigned; (-)) [Example 12c, (−)-4-(2-(2-chloro-4-((5-cyclopropyl-3-(2,6-dichlorophenyl)isoxazol-4-yl)methoxy)phenyl)cyclopropyl)benzoic acid]
> 100 nM | 10 to 100 nM | higher photostability | CS(=O)(=O)NC(=O)c1ccc(C2CC2c2ccc(OCc3c(-c4c(Cl)cccc4Cl)noc3C3CC3)cc2Cl)cc1 (centres unmarked) [Example 14, 4-(2-(2-chloro-4-((5-cyclopropyl-3-(2,6-dichlorophenyl)isoxazol-4-yl)methoxy)phenyl)cyclopropyl)-N-(methylsulfonyl)benzamide]
> 100 nM | 10 to 100 nM | higher photostability | Clc1cc(OCc2c(-c3c(Cl)cccc3Cl)noc2C2CC2)ccc1C1CC1c1ccc(-c2nnn[nH]2)cc1 (centres unmarked) [Example 16, 4-((4-(2-(4-(1H-tetrazol-5-yl)phenyl)cyclopropyl)-3-chlorophenoxy)methyl)-5-cyclopropyl-3-(2,6-dichlorophenyl)isoxazole]
< 10 nM | < 10 nM | higher photostability | CC(C)n1nc(C(=O)O)cc1C1CC1c1ccc(OCc2c(-c3c(Cl)cccc3Cl)noc2C2CC2)cc1Cl (centres unmarked) [Example 20, 5-(2-(2-chloro-4-((5-cyclopropyl-3-(2,6-dichlorophenyl)isoxazol-4-yl)methoxy)phenyl)cyclopropyl)-1-isopropyl-1H-pyrazole-3-carboxylic acid]
< 10 nM | < 10 nM |  | CC(C)n1nc(C(=O)O)c2ccc(C3CC3c3ccc(OCc4c(-c5c(Cl)cccc5Cl)noc4C4CC4)cc3Cl)cc21 (centres unmarked) [Example 21, 6-(2-(2-chloro-4-((5-cyclopropyl-3-(2,6-dichlorophenyl)isoxazol-4-yl)methoxy)phenyl)cyclopropyl)-1-isopropyl-1H-indazole-3-carboxylic acid]
10 to 100 nM | < 10 nM |  | Cc1cc(C2CC2c2ccc(OCc3c(-c4c(Cl)cccc4Cl)noc3C3CC3)cc2Cl)cc(C)c1C(=O)O (centres unmarked) [Example 23, 4-(2-(2-chloro-4-((5-cyclopropyl-3-(2,6-dichlorophenyl)isoxazol-4-yl)methoxy)phenyl)cyclopropyl)-2,6-dimethylbenzoic acid]
> 100 nM | > 100 nM |  | O=C(O)c1ccc(C2CC2c2ccc(OCc3c(-c4ccccc4OC(F)(F)F)noc3C3CC3)cc2Cl)cc1 (centres unmarked) [Example 24]
> 100 nM | > 100 nM |  | O=C(O)CNC(=O)c1ccc(C2CC2c2ccc(OCc3c(-c4c(Cl)cccc4Cl)noc3C3CC3)cc2Cl)cc1 (centres unmarked) [Example 28, 2-(4-(2-(2-chloro-4-((5-cyclopropyl-3-(2,6-dichlorophenyl)isoxazol-4-yl)methoxy)phenyl)cyclopropyl)benzamido)acetic acid]
